Laboratory results: patent US9023353B2, “Anti-(+)—methamphetamine monoclonal antibodies” (Board of Trustees University of Arkansas, priority 2013, dated 2015)

Test system: ch-Antibody 51
Experiment: ligand cross-reactivity testing: inhibition of [3H]-METH binding to antibody
Source text: Ch-Antibody 51 was designed to maintain the variable framework regions of the heavy and light chains of the mouse antibody including all three CDRs of both the heavy and the light chains, but includes a human IgG2 Fc region. These studies were designed to examine the potential for ch-Antibody 51 to bind to structurally-related stimulants, neurotransmitters, selected medications, and other drugs of abuse (Table 4). The assay used a modified radioimmunoassay (RIA) in a competitive binding format with [^3H]-METH (similar to RIA in Peterson et al., J Pharmacol Exp Ther (2008) 325:124-133) The assay is started by incubating radiolabeled METH ([^3H]-METH) with unlabeled potential ligand (concentrations typically range from 0.03-5000 nM), ch-Antibody 51, and Protein G conjugated to magnetic beads. After reaching equilibrium, the beads with bound antibody and ligand are separated from the solution with a magnet and the supernatant aspirated. The amount of mAb-bound [^3H]-METH is quantified by liquid scintillation counting. For each of the related stimulants, a complete inhibition curve was constructed to determine the KD or KI value (see FIG. 7). For the remaining test ligands, the same method was used, but only 2 concentrations of ligand were tested rather than the expanded range. Additionally, highly concentrated pools of compounds were used to attempt inhibition of [^3H]-METH binding to ch-Antibody 51. If METH binding was inhibited 50% or more by any pool of ligands, the assay was repeated with the compounds separately to identify the individual cross reacting ligands.
Average disintegrations per minute (DPM) from the scintillation counter were plotted versus the concentration of unlabeled ligand using Origin software (OriginLab). A 4-parameter logistic function was fit to the data to obtain values describing the top and bottom plateaus, slope and mid-point. The mid-point of the curve identifies the concentration of unlabeled ligand required to inhibit 50% of the binding of [^3H]-METH. For homologous assays in which unlabeled METH competes with [^3H]-METH for binding to ch-Antibody 51, the dissociation constant (KD) is found by subtracting the concentration of [^3H]-METH from the mid-point. For non-homologous assays in which unlabeled ligands other than METH compete for binding with [^3H]-METH, the subtraction yields a KI value.
Each pool was analyzed in triplicate, twice at each concentration.
Three (3) of the pools inhibited binding of radiolabeled METH by more than 50%, therefore these individual ligands were retested at 1 μM in triplicate in 2 separate assays.

[1] = individual ligands at 1 μM, triplicate in 2 assays, average

Compound | Percent inhibition of [3H]-METH binding [1] [%] | also measured
CN[C@@H](C)[C@H](O)c1ccccc1 (racemic) [(±)-Ephethine] | 26.1 | 
CC(N)Cc1ccc2c(c1)OCO2 (single isomer, unassigned; (+)) [(+)-MDA, (+) 3,4-methylenedioxyamphetamine] | 40.7 | 
CNC(C)Cc1ccc2c(c1)OCO2 (single isomer, unassigned; (-)) [(−)-MDMA] | 78.3 | Ki (inferred from more than 50% inhibition at 1 μM): < 1 µM
NCCc1ccccc1 [2-Phenylethylamine] | 20.0 | 
CNC[C@H](O)c1cccc(O)c1 [(−)-Phenylephrine] | 38.2 | 
NCCc1ccc(O)cc1 [Tyramine] |  | Percent inhibition of [3H]-METH binding (ligand pool, each inhibitor in pool 1 μM): 2.1%; Percent inhibition of [3H]-METH binding (ligand pool, each inhibitor in pool 10 μM): 7.5%
(+)-Norpseudoephedrine | 36.3 | 
(+)-Pseudoephedrine | 5.1 | 
